Literature values, collected in patent publication US20250332117A1, “Thin Films with Peroxides and Uses Thereof” (Silverpeutics, Inc., priority 2024, published 2025).

Legend:
bacteria = conditions: general statement, no source given
cells = conditions: general statement, no source given

## OO [peroxide, Hydrogen peroxide]
bacteria
  peroxide concentration at which partial bacteriostatic effects are observed: 25 to 50 µM
cells
  peroxide concentration at which cell killing is observed: above 500 μM
